Assay results published in US10800791B2, “Triazole ACC inhibitors and uses thereof” (Gilead Apollo, LLC, priority 2015, dated 2020).
In brackets after ≈: the same amount, converted by molar mass. Like-named read-outs stand apart in the source and are kept apart here.

Assays:
[1] = test system: Phytophthora capsici (Pc); test: Growth inhibition assay of fungal pathogens, Pc; assay type: cell-based; settings: 48 h, read-out: Concentration at 90% Inhibition Pc
In short: (§1)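 Spores from sub-cultured plates were diluted in 17% V8 liquid medium and exposed to compound from DMSO stocks at final concentrations of 50, 10 and 2 ppm or 2, 0.4 and 0.08 ppm. OD600 and visual ratings at 48 h were compared with the 2% DMSO control to give percent growth inhibition.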

Rhizoctonia solani (Rs) = test: Growth inhibition assay of fungal pathogens, Rs; assay type: cell-based; settings: 48 h, mycelial plugs, read-out: Concentration at 90% Inhibition Rs
C. albicans = test: Antifungal Activity Assay (broth microtiter MIC), C. albicans; assay type: cell-based, Candida albicans; settings: Candida albicans, ATCC90028, 48 h, ATCC 90028, 3 replicates, MIC recorded at 48 h, read-out: MIC, C. albicans ATCC 90028
In short: (§2)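 Endpoint: lowest concentration visibly inhibiting growth relative to control after 48 h. Inoculum of 2.5×10^3 CFU/mL final in RPMI 1640+MOPS, prepared from overnight 35° C agar cultures; test compounds diluted in water to 128 μg/mL before plating.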

Septoria tritici (St) = test: Growth inhibition assay of fungal pathogens, St; assay type: cell-based; settings: Zymoseptoria tritici, 48 h, Septoria tritici, read-out: Concentration at 90% Inhibition St
In short: as §1

[2] = test system: Fusarium moniliforme (Fm); test: Growth inhibition assay of fungal pathogens, Fm; assay type: cell-based; settings: Fusarium verticillioides, 48 h, Fusarium moniliforme, read-out: Concentration at 90% Inhibition Fm
In short: as §1

C. krusei = test: Antifungal Activity Assay (broth microtiter MIC), C. krusei; assay type: cell-based, Candida krusei; settings: Pichia kudriavzevii, ATCC6258, 48 h, ATCC 6258, 3 replicates, MIC recorded at 48 h, read-out: MIC, C. krusei ATCC 6258
In short: as §2

Diplodia maydis (Dm) = test: Growth inhibition assay of fungal pathogens, Dm; assay type: cell-based; settings: Stenocarpella maydis, 48 h, Diplodia maydis, read-out: Concentration at 90% Inhibition Dm
In short: as §1

C. parapsilosis = test: Antifungal Activity Assay (broth microtiter MIC), C. parapsilosis; assay type: cell-based, Candida parapsilosis; settings: Lodderomyces parapsilosis, ATCC22019, 48 h, ATCC 22019, 3 replicates, MIC recorded at 48 h, read-out: MIC, C. parapsilosis ATCC 22019
In short: as §2

[3] = test system: Collectotrichum graminicola (Cg); test: Growth inhibition assay of fungal pathogens, Cg; assay type: cell-based; settings: 48 h, Collectotrichum graminicola, read-out: Concentration at 90% Inhibition Cg
In short: as §1

[4] = test system: Fusarium virguliforme (Fv); test: Growth inhibition assay of fungal pathogens, Fv; assay type: cell-based; settings: 48 h, read-out: Concentration at 90% Inhibition Fv
In short: as §1

human (hACC2) = human (hACC2) (Homo sapiens, UniProt O00763); test: In vitro ACC inhibition assay (ADP-Glo), hACC2; assay type: biochemical; settings: 5 nM ACC2, 20 μM ATP, 20 μM acetyl-CoA
Procedure: The detailed procedure is as follows. […] 10 μL ADP glo reagent was added. […] 20 μL kinase detection reagent was added.

[5] = growth inhibition at 48 hours vs 2% DMSO control
[6] = growth inhibition vs 2% DMSO control at 48 hours

human (hACC2), sequence (O00763 whole entry): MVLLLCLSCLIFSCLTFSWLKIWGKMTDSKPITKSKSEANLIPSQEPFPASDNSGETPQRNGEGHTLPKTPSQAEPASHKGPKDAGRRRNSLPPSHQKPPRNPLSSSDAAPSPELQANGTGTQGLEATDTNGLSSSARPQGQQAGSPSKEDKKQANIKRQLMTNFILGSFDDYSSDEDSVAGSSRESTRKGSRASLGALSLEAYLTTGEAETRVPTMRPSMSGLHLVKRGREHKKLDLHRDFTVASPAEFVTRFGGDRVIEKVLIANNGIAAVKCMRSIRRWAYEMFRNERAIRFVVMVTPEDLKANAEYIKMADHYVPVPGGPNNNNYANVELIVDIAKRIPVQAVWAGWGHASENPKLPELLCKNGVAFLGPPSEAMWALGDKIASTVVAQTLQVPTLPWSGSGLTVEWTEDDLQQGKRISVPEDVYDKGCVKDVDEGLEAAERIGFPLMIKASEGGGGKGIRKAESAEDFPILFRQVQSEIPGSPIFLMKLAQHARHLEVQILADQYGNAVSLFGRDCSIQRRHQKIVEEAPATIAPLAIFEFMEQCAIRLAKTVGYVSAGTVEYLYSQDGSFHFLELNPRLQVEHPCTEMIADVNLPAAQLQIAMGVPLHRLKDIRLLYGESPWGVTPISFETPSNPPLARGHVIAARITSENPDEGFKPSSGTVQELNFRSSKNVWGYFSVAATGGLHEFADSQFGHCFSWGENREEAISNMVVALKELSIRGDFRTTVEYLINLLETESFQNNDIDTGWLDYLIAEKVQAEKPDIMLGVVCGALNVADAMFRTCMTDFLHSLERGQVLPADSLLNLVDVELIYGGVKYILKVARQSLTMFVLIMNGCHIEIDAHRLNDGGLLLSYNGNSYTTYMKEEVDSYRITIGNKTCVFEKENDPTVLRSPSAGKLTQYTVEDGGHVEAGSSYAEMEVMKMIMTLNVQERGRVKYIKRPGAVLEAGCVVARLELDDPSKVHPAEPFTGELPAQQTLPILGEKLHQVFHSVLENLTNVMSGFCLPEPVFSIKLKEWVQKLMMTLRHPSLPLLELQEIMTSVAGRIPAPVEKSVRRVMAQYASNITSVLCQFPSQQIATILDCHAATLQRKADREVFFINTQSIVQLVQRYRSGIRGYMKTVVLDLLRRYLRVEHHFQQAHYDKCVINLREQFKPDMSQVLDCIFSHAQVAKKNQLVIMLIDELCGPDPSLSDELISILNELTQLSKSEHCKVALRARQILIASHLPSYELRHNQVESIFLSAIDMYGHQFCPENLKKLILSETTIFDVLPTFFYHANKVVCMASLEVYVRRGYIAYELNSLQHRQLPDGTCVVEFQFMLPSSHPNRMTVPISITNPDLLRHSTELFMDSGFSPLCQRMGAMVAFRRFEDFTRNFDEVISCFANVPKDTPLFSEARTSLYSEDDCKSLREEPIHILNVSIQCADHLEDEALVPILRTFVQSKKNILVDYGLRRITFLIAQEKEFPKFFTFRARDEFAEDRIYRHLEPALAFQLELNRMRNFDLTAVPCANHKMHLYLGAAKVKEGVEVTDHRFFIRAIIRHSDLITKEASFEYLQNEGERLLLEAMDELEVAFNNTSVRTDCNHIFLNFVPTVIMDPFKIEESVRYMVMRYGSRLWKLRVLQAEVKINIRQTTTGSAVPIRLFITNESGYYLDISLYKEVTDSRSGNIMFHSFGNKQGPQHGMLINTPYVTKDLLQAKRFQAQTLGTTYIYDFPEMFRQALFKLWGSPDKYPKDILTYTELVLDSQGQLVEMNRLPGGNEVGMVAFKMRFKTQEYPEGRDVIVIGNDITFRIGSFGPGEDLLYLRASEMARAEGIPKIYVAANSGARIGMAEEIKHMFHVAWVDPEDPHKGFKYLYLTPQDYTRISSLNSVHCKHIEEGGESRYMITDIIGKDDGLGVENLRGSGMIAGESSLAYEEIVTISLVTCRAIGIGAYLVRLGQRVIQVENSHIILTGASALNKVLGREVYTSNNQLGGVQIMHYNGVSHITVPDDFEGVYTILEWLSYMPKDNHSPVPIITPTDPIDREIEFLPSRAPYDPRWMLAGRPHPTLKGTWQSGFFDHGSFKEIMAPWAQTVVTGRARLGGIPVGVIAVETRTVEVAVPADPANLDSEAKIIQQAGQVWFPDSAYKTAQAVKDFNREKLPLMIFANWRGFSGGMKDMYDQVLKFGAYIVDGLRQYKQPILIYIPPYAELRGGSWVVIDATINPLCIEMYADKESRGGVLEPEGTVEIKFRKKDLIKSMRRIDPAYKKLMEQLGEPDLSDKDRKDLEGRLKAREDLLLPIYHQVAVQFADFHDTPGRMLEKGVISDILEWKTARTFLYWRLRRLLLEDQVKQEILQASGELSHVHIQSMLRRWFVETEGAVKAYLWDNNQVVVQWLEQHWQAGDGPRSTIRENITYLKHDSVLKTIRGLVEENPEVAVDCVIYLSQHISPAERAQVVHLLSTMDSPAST

Compound | IC90 [1, 5] | IC90 [1, 6] | IC90 (Rhizoctonia solani (Rs); [5]) | IC90 (Rhizoctonia solani (Rs); [6]) | MIC (C. albicans; Table 3a) | MIC (C. albicans; Table 3b (additional results)) | IC90 (Septoria tritici (St); [5]) | IC90 (Septoria tritici (St); [6]) | IC90 [2, 5] | IC90 [2, 6] | MIC (C. krusei; Table 3a) | MIC (C. krusei; Table 3b (additional results)) | IC90 (Diplodia maydis (Dm); [5]) | IC90 (Diplodia maydis (Dm); [6]) | MIC (C. parapsilosis; Table 3a) | MIC (C. parapsilosis; Table 3b (additional results)) | IC90 [3, 5] | IC90 [3, 6] | IC90 [4, 5] | IC90 [4, 6] | also measured
COc1ccc(F)cc1[C@H](Cn1c(=O)n(C(C)(C)C(N)=O)c(=O)c2c(C)c(-n3nccn3)sc21)OC1CCOCC1 [Compound I-1] | 10 µg/mL (≈ 17 µM) | > 50 µg/mL | 2 µg/mL (≈ 3.41 µM) | 10 µg/mL (≈ 17 µM) | 0.25 to 1 µg/mL (≈ 0.426 to 1.7 µM) | 0.25 to 1 µg/mL (≈ 0.426 to 1.7 µM) | > 50 µg/mL | > 50 µg/mL | 0.4 µg/mL (≈ 0.682 µM) | 0.4 µg/mL (≈ 0.682 µM) | 0.25 to 1 µg/mL (≈ 0.426 to 1.7 µM) | 0.25 to 1 µg/mL (≈ 0.426 to 1.7 µM) | 2 µg/mL (≈ 3.41 µM) | 2 µg/mL (≈ 3.41 µM) | 1.1 to 2 µg/mL (≈ 1.88 to 3.41 µM) | 2.01 to 4 µg/mL (≈ 3.43 to 6.82 µM) | 2 µg/mL (≈ 3.41 µM) | 2 µg/mL (≈ 3.41 µM) | 2 µg/mL (≈ 3.41 µM) | 2 µg/mL (≈ 3.41 µM) | IC50 (human (hACC2); Table 2a): 5 to 10 nM; IC50 (human (hACC2); Table 2b, additional results): 5 to 10 nM
COc1ccc(F)cc1[C@H](Cn1c(=O)n(C(C)(C)C(N)=O)c(=O)c2c(C)c(-n3nccn3)sc21)OC(C)C [Compound I-2, (R)-2-(1-(2-(5-fluoro-2-methoxyphenyl)-2-isopropoxyethyl)-5-methyl-2,4-dioxo-6-(2H-1,2,3-triazol-2-yl)-1,4-dihydrothieno[2,3-d]pyrimidin-3(2H)-yl)-2-methylpropanamide] | > 50 µg/mL | > 50 µg/mL | 0.08 µg/mL (≈ 0.147 µM) | 0.08 µg/mL (≈ 0.147 µM) | 2.1 to 4 µg/mL (≈ 3.86 to 7.34 µM) | 1.01 to 2 µg/mL (≈ 1.85 to 3.67 µM) | > 50 µg/mL | > 50 µg/mL | 0.4 µg/mL (≈ 0.734 µM) | 0.4 µg/mL (≈ 0.734 µM) | 0.25 to 1 µg/mL (≈ 0.459 to 1.84 µM) | 0.25 to 1 µg/mL (≈ 0.459 to 1.84 µM) | 2 µg/mL (≈ 3.67 µM) | 2 µg/mL (≈ 3.67 µM) | 2.1 to 4 µg/mL (≈ 3.86 to 7.34 µM) | > 4.01 µg/mL | 2 µg/mL (≈ 3.67 µM) | 2 µg/mL (≈ 3.67 µM) | 0.4 µg/mL (≈ 0.734 µM) | 0.4 µg/mL (≈ 0.734 µM) | IC50 (human (hACC2); Table 2a): 1 to 5 nM; IC50 (human (hACC2); Table 2b, additional results): 1 to 5 nM
